Experiments:
Type in all cases: physicochemical
[1] = Absorption and photoluminescence (quantum yield, lifetime, q); parameters: λabs(max): unit not given here
[2] = Circularly polarized luminescence (CPL), dissymmetry factor glum; conditions: DMSO; wavelength in parentheses in the cell
[3] = Water solubility of complexes
[4] = Rate of complexation of ligands with metal salts under mild (radiolabeling) conditions; conditions: pD 6.0-7.0, 50° C., 1H NMR titration

COc1cc(OC)c(C#Cc2cc(CN3CC(Cc4ccccc4)N(CC(=O)[O-])CC(Cc4ccccc4)N(CC(=O)[O-])CC(Cc4ccccc4)N(CC(=O)[O-])CC3Cc3ccccc3)nc(P(C)(=O)[O-])c2)c(OC)c1.[Eu+3] (stereo not drawn) [Complex 11]
R, I(5D0 → 7F2)/I(5D0 → 7F1) ([1]; asymmetry ratio, room temperature, 10 in MeOH, 11 in DMSO): 2.69
ΦDMSO (%) ([1]; luminescence quantum yield in DMSO): 40.4%
λabs(max) ([1]; room temperature, 10 measured in MeOH, 11 in DMSO): 354
glum ΔJ = 3 (λ) DMSO [2]: +0.25 (657)
water solubility [3]: poor water solubility

CC[C@H]1CN(CC(=O)O)[C@@H](CC)CN(CC(=O)O)[C@@H](CC)CN(CC(=O)O)[C@@H](CC)CN1CC(=O)O [Complex L2, 2,2′,2″,2′″-((2S,5S,8S,11S)-2,5,8,11-tetraethyl-1,4,7,10-tetraazacyclododecane-1,4,7,10-tetrayl)tetraacetic acid]
time to complete complexation with Eu(OTf)3 [4]: ≤ 5 min
